Among the data in the Kinase Knowledgebase extract (Sharma et al. 2016) are IC50 values, retold here.

In experiment [1] the target is EGFR (human) (UniProt P00533). The note with it: sw948.
Experiment [2] addresses EGFR (human) (UniProt P00533). The conditions noted are these: t-47d.
Experiment [3] concerns the target EGFR (human) (UniProt P00533). The note with it: pc-3.
The target in experiment [4] is EGFR (human) (UniProt P00533). The note with it: colo-205.
Experiment [5] addresses EGFR (human) (UniProt P00533). The conditions noted are these: a431.
Experiment [6] addresses EGFR (UniProt P00533).
The target of experiment [7] is EGFR (human) (UniProt P00533). The conditions noted are these: mip.
In experiment [8] the target is EGFR (human) (UniProt P00533). The conditions noted are these: ls174t.
Experiment [9] addresses EGFR (human) (UniProt P00533). The conditions noted are these: lx1.
Experiment [10] concerns the target EGFR (human) (UniProt P00533). The conditions noted are these: a549.
Experiment [11] has as its target EGFR (human) (UniProt P00533). The conditions noted are these: ccrf-cem leukemia cell.
The target of experiment [12] is EGFR (human) (UniProt P00533). The note with it: ccl228.
The target in experiment [13] is EGFR (human) (UniProt P00533). The note with it: hl-60.
Experiment [14] deals with EGFR (human) (UniProt P00533). The note with it: cx-1 colon.
The target in experiment [15] is EGFR (human) (UniProt P00533). The note with it: hct-15.
The target in experiment [16] is EGFR (human) (UniProt P00533). The note with it: nfc.
In experiment [17] the target is EGFR (human) (UniProt P00533). The note with it: lncap.
In experiment [18] the target is EGFR (UniProt P00533). The source holds these as a separate data set.
Chain of EGFR (P00533 whole entry, looked up): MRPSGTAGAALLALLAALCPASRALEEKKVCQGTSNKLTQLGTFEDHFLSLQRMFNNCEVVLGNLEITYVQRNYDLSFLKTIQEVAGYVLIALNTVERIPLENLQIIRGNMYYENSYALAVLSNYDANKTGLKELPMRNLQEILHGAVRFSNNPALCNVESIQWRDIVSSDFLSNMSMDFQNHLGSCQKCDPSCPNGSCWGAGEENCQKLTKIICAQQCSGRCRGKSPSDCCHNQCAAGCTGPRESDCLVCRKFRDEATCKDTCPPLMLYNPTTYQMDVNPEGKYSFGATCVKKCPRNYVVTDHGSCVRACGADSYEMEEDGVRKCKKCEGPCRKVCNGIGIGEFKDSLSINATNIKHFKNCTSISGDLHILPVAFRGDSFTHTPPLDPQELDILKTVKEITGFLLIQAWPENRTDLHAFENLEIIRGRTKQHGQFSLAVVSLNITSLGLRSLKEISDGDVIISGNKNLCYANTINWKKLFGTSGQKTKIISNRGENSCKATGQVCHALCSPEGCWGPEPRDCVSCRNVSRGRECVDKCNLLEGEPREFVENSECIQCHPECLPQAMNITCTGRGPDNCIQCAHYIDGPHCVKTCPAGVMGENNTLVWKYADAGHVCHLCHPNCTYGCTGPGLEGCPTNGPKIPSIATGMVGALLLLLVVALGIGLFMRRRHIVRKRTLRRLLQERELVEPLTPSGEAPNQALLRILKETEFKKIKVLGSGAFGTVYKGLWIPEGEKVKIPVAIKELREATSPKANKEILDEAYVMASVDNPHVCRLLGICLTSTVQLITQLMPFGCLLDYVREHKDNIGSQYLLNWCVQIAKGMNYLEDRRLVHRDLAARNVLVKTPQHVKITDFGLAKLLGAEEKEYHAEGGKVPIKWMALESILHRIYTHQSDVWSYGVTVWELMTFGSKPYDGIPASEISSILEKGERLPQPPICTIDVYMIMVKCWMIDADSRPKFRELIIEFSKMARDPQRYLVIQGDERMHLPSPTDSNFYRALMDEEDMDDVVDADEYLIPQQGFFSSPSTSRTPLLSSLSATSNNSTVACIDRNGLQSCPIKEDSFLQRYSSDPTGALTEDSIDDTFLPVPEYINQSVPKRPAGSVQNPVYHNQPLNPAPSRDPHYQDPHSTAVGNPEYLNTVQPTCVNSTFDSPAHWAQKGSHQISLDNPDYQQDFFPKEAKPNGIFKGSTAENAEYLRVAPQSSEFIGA
The target of experiment [19] is EGFR (human) (UniProt P00533). The conditions noted are these: nhek.
The target in experiment [20] is EGFR (human) (UniProt P00533). The note with it: htb161.
The target of experiment [21] is EGFR (human) (UniProt P00533). The conditions noted are these: a2780s.
In experiment [22] the target is EGFR (human) (UniProt P00533). The note with it: a2780ddp.
The target in experiment [23] is EGFR (human) (UniProt P00533). The note with it: caco2.
Experiment [24] deals with EGFR (human) (UniProt P00533). The conditions noted are these: b7474.
Experiment [25] has as its target EGFR (human) (UniProt P00533). The note with it: du145.

Each structure is given as a SMILES string. Values after ≈ are worked out from the molar mass of the structure shown. Values joined by “and” are separate entries in the source; they are usually repeats but may differ in a detail not shown here. Identical values can stand only once.

Chain of EGFR (human) (P00533 whole entry, looked up): as above

In the case of `COc1cc2ncc(C#N)c(Nc3ccc(F)cc3)c2cc1OC`, the IC50 on EGFR (human) [1], on EGFR (human) [2] and at EGFR (human) [3] was more than 100 µg/mL throughout.

As to `N#Cc1cnc2ccc(N)cc2c1Nc1cccc(Br)c1`, the half-inhibitory concentration (IC50) on EGFR (human) [4] and on EGFR (human) [1] was more than 100 µg/mL each time.

In turn, `CC(=O)Nc1cc(CN(C)C)c2ncc(C#N)c(Nc3cccc(Br)c3)c2c1` gave an IC50 on EGFR (human) [5] of more than 5 µg/mL.

In the case of `COC/C=C/C(=O)Nc1ccc2ncc(C#N)c(Nc3cccc(Br)c3)c2c1`, the IC50 on EGFR [6] was 80 nM; on EGFR (human) [5] it was 0.8 µg/mL.

For `COc1cc2ncc(C#N)c(Nc3cccc(Cl)c3)c2cc1OC`, the IC50 against EGFR (human) [5] is 240 nM and 0.71 µg/mL.

Regarding `COc1cc2ncc(C#N)c(Oc3cccc(Br)c3)c2cc1OC`, the IC50 is more than 100 µg/mL against EGFR (human) [7]; more than 100 µg/mL on EGFR (human) [8]; more than 100 µg/mL at EGFR (human) [1]; more than 100 µg/mL at EGFR (human) [9]; more than 100 µg/mL against EGFR (human) [10]; 100 µg/mL against EGFR (human) [5]. Moreover, the IC50 against EGFR (human) [3] and on EGFR (human) [11] was more than 100 µg/mL each time.

Regarding `COc1cc2ncc(C#N)c(Nc3cccc(C#N)c3)c2cc1OC`, the half-inhibitory concentration (IC50) against EGFR (human) [7] is more than 100 µg/mL; on EGFR (human) [4], more than 100 µg/mL; at EGFR (human) [1], more than 100 µg/mL; against EGFR (human) [12] it was more than 100 µg/mL; against EGFR (human) [9], 100 µg/mL (≈ 303 µM); against EGFR (human) [10], 100 µg/mL (≈ 303 µM). The IC50 is more than 1 µg/mL against EGFR (human) [13] and more than 100 µg/mL against EGFR (human) [11].

Consider `N#Cc1cnc2ccc([N+](=O)[O-])cc2c1Nc1cccc(Br)c1`, for which the half-inhibitory concentration (IC50) at EGFR (human) [14] was more than 100 µg/mL; against EGFR (human) [15] it was 100 µg/mL (≈ 271 µM); on EGFR (human) [1] it was more than 100 µg/mL; on EGFR (human) [12], more than 100 µg/mL; at EGFR (human) [9] it was more than 100 µg/mL; against EGFR (human) [10], more than 100 µg/mL. Besides, the 50% inhibitory concentration (IC50) on EGFR (human) [16], against EGFR (human) [3], against EGFR (human) [17] and against EGFR (human) [11] was more than 100 µg/mL throughout.

`CCN1CCN(CC#CC(=O)Nc2ccc3ncc(C#N)c(Nc4cccc(Br)c4)c3c2)CC1` came in with a half-maximal inhibitory concentration (IC50) at EGFR (human) [5] of 800 nM.

For the molecule `COc1cc2ncc(C#N)c(Nc3cccc(Br)c3)c2cc1OC`, the concentration for half-maximal inhibition (IC50) against EGFR (human) [5] turned out to be 300 nM.

Regarding `CNC/C=C/C(=O)Nc1ccc2ncc(C#N)c(Nc3cccc(Br)c3)c2c1`, the concentration for half-maximal inhibition (IC50) against EGFR (human) [5] is more than 10 µg/mL.

Take `CC#CC(=O)Nc1ccc2ncc(C#N)c(Nc3cccc(Br)c3)c2c1`: the IC50 on EGFR [18] is 9000 nM; at EGFR (human) [19], 9000 nM; at EGFR (human) [20], 7.89 µg/mL (≈ 19.5 µM); on EGFR (human) [21], 9.8 µg/mL (≈ 24.2 µM); on EGFR (human) [22], 60.4 µg/mL (≈ 149 µM); against EGFR (human) [7], 100 µg/mL (≈ 247 µM). The IC50 at EGFR (human) [4] is more than 100 µg/mL; on EGFR (human) [14], 81.9 µg/mL (≈ 202 µM); on EGFR (human) [23] it was 5.63 µg/mL (≈ 13.9 µM); at EGFR (human) [15] it was > 33 µg/mL and 98.9 µg/mL; against EGFR (human) [8], > 33 µg/mL and 87 µg/mL; against EGFR (human) [1] it was more than 100 µg/mL. The 50% inhibitory concentration (IC50) against EGFR (human) [12] is more than 100 µg/mL; against EGFR (human) [24] it was > 33 µg/mL and 95.7 µg/mL; against EGFR (human) [2], more than 100 µg/mL; at EGFR (human) [9], more than 100 µg/mL; against EGFR (human) [10], more than 100 µg/mL; at EGFR (human) [5], 38.1 µg/mL. Also, the IC50 at EGFR (human) [16] is more than 100 µg/mL; against EGFR (human) [25] it was 7.81 µg/mL (≈ 19.3 µM); on EGFR (human) [3] it was more than 100 µg/mL; at EGFR (human) [17] it was > 33 µg/mL and 90 µg/mL; on EGFR (human) [13] it was more than 100 µg/mL; on EGFR (human) [11], more than 100 µg/mL.

At EGFR [6], `COc1cc2ncc(C#N)c(Nc3cccc(Br)c3)c2cc1NC(=O)C#CCN(C)C` displayed an IC50 of 0.008 nM.

As to `COc1cc2ncc(C#N)c(Nc3cccc(SC)c3)c2cc1OC`, the half-inhibitory concentration (IC50) against EGFR [6] was 10 nM; against EGFR (human) [5], 14.3 µg/mL and 6.95 µg/mL.
